In patent publication US10968193B2, “Antidiabetic bicyclic compounds” (Merck Sharp & Dohme Corp., priority 2014, dated 2021):

Each compound was assayed against T1, human GPR40 (Homo sapiens, UniProt O14842) (assay: Inositol Phosphate Turnover (IP1) Assay 2). Conditions: HEK cells stably expressing human GPR40; 15,000 cells per well; compound acoustically transferred; CisBio IP-One kit.
T1 construct: expressed in transfected cells; host or cells: HEK cells stably expressing the aequorin reporter
Type: cell-based
Protocol: Human and mouse GPR40 stable cell-lines were generated in CHO cells stably expressing NFAT BLA (Beta-lactamase). A human GPR40 stable cell-line was generated in HEK cells stably expressing the aequorin expressing reporter. The expression plasmids were transfected using lipofectamine (Life Technologies) following manufacturer's instructions. Stable cell-lines were generated following drug selection.
Inositol Phosphate Turnover (IP1) Assay 2:
The assay was performed in 384-well format. HEK cells stably expressing human GPR40 were plated at 15,000 cells per well in growth medium (DMEM/10% fetal calf serum). Cell plates were then incubated 16 hours at 37 degrees in a 5% CO2 incubator.
Measurement of Inositol Phosphate Turnover (IP1) was performed using the CisBio IP-One kit (Part number 62IPAPEB). After the 16 hour incubation, the cells were washed with HEPES buffer and 10 ul of stimulation buffer (prepared as described in the kit) was added to each well. In a separate plate, compounds were diluted in DMSO (400-fold over the final concentration in the assay well) and 25 nl was acoustically transferred to the appropriate well in the assay cell plate. The plates were then incubated for 60 minutes at 37 degrees. 10 ul of detection buffer (also prepared as described in the IP-One kit) was added to each well and the plates were incubated for 60 minutes in the dark. The plates were then read in a Perkin Elmer EnVision or equivalent reader able to measure FRET. Fluorescent ratio of emission at 665 and 620 nm was then converted to IP1 concentration by back calculating from an IP1 standard curve prepared at the time of the assay.

T1 sequence (O14842 whole entry): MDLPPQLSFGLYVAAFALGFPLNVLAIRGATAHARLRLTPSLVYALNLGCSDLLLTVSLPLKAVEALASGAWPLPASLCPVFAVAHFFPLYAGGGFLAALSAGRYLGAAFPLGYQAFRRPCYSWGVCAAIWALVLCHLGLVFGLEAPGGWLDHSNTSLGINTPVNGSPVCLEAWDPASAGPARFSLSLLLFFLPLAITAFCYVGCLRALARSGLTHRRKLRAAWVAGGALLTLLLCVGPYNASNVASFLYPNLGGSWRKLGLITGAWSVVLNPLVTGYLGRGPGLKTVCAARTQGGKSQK

Structure (SMILES)	EC50 [nM]
COc1cc(-c2ccc(C3CCc4ccc([C@H](C5CC5)[C@H](C)C(=O)O)cc4O3)cc2CN(C)CC(F)(F)F)c(F)cn1 (some centres unmarked) [Example 20]	0.84
CNCc1cc([C@@H]2CCc3ccc([C@H](C4CC4)[C@H](C)C(=O)O)cc3O2)ccc1-c1cc(OC)ncc1F [Example 34, Sodium (2S,3R)-3-cyclopropyl-3-((S)-2-(4-(5-fluoro-2-methoxypyridin-4-yl)-3-((methylamino)methyl)phenyl)chroman-7-yl)-2-methylpropanoate]	1.9
COc1cc(-c2ccc(C3CCc4ccc([C@H](C5CC5)[C@H](C)C(=O)O)cc4O3)cc2CN2C3CCC2CC(OC)C3)c(F)cn1 (some centres unmarked) [Example 37]	4.7
COc1cc(-c2ccc(C3CCc4ccc([C@H](C5CC5)[C@H](C)C(=O)O)cc4O3)cc2CN2CCC3(CCCO3)C2)c(F)cn1 (some centres unmarked) [Example 41]	13
COc1cc(-c2ccc(C3CCc4ccc([C@H](C5CC5)[C@H](C)C(=O)O)cc4O3)cc2CN2CC3CC2CO3)c(F)cn1 (some centres unmarked) [Example 43]	2.1
COc1cc(-c2ccc(C3CCc4ccc([C@H](C5CC5)[C@H](C)C(=O)O)cc4O3)cc2CN2CCC3(CCO3)C2)c(F)cn1 (some centres unmarked) [Example 54]	13
COc1cc(-c2ccc(C3CCc4ccc([C@H](C5CC5)[C@H](C)C(=O)O)cc4O3)cc2CN2[C@H](C)COC[C@H]2C)c(F)cn1 (some centres unmarked) [Example 60]	0.59
COc1cc(-c2ccc(C3CCc4ccc([C@H](C5CC5)[C@H](C)C(=O)O)cc4O3)cc2CN2C3CCC2COC3)c(F)cn1 (some centres unmarked) [Example 68]	0.7
COc1cc(-c2ccc(C3CCc4ccc([C@H](C5CC5)[C@H](C)C(=O)O)cc4O3)cc2CN2C3CCC2CC3)c(F)cn1 (some centres unmarked) [Example 69]	2.6
COc1cc(-c2ccc(C3CCc4ccc([C@H](C5CC5)[C@H](C)C(=O)O)cc4O3)cc2CN2[C@H](C)CC[C@H]2C)c(F)cn1 (some centres unmarked) [Example 70]	0.5
CCOc1cc(-c2ccc(C3CCc4ccc([C@H](C5CC5)[C@H](C)C(=O)O)cc4O3)cc2CN2CCCC2)c(F)cn1 (some centres unmarked) [Example 77]	29
COc1c[nH]nc1-c1ccc([C@@H]2CCc3ccc([C@H](C4CC4)[C@H](C)C(=O)O)cc3O2)cc1CN1CCCC1 [Example 79, Sodium (2S,3R)-3-cyclopropyl-3-((S)-2-(4-(4-methoxy-1H-pyrazol-3-yl)-3-(pyrrolidin-1-ylmethyl)phenyl)chroman-7-yl)-2-methylpropanoate]	4840
COc1cc(-c2ccc([C@H]3CCc4ccc([C@H](C5CC5)[C@H](C)C(=O)O)cc4O3)cc2[C@H](C)N(C)C)c(F)cn1 [Example 80, (2S,3R)-3-cyclopropyl-3-((R)-2-(3-((S)-1-(dimethylamino)ethyl)-4-(5-fluoro-2-methoxypyridin-4-yl)phenyl)chroman-7-yl)-2-methylpropanoic acid]	11
COc1cc(-c2ccc([C@H]3CCc4ccc([C@H](C5CC5)[C@H](C)C(=O)O)cc4O3)cc2[C@@H](C)N(C)C)c(F)cn1 [Example 81, (2S,3R)-3-cyclopropyl-3-((R)-2-(3-((R)-1-(dimethylamino)ethyl)-4-(5-fluoro-2-methoxypyridin-4-yl)phenyl)chroman-7-yl)-2-methylpropanoic acid]	4
COc1cc(-c2ccc([C@H]3CCc4ccc([C@H](C5CC5)[C@H](C)C(=O)O)cc4O3)cc2[C@H](C)N(C)C)c(F)cn1 [Example 82, (2S,3R)-3-cyclopropyl-3-((R)-2-(3-((S)-1-(dimethylamino)ethyl)-4-(5-fluoro-2-methoxypyridin-4-yl)phenyl)chroman-7-yl)-2-methylpropanoic acid]	13
COc1cc(-c2ccc(C3CCc4ccc([C@H](C5CC5)[C@H](C)C(=O)O)cc4O3)cc2[C@@H](C)N(C)C)c(F)cn1 (stereo partly drawn) [Example 83, (2S,3R)-3-cyclopropyl-3-((R)-2-(3-((R)-1-(dimethylamino)ethyl)-4-(5-fluoro-2-methoxypyridin-4-yl)phenyl)chroman-7-yl)-2-methylpropanoic aid]	3
COc1cc(-c2ccc(C3CCc4ccc([C@H](C5CC5)[C@H](C)C(=O)O)cc4O3)cc2C(C)N2CCCC2)c(F)cn1 (stereo partly drawn) [Example 84, Methyl (2S,3R)-3-cyclopropyl-3-(2-(4-(5-fluoro-2-methoxypyridin-4-yl)-3-(1-(pyrrolidin-1-yl)ethyl)phenyl)chroman-7-yl)-2-methylpropanoic acid]	2
COc1cc(-c2ncc(C3CCc4ccc([C@H](C5CC5)[C@H](C)C(=O)O)cc4O3)nc2CN2CCCC2)c(F)cn1 (stereo partly drawn) [Example 110, (2S,3R)-3-cyclopropyl-3-(2-(5-(5-fluoro-2-methoxypyridin-4-yl)-6-(pyrrolidin-1-ylmethyl)pyrazin-2-yl)chroman-7-yl)-2-methylpropanoic acid]	824

More lines, now with the values ahead:

EC50 [nM]	Structure (SMILES)
2.1	COC[C@@H]1CCCN1Cc1cc(C2CCc3ccc([C@H](C4CC4)[C@H](C)C(=O)O)cc3O2)ccc1-c1cc(OC)ncc1F (some centres unmarked) [Example 36]
1.8	COc1cc(-c2ccc(C3CCc4ccc([C@H](C5CC5)[C@H](C)C(=O)O)cc4O3)cc2CN2CCC[C@@H]2C)c(F)cn1 (some centres unmarked) [Example 38]
2.1	COc1cc(-c2ccc(C3CCc4ccc([C@H](C5CC5)[C@H](C)C(=O)O)cc4O3)cc2CN2CCC3OCCC32)c(F)cn1 (some centres unmarked) [Example 39]
1.8	COC[C@H]1CCCN1Cc1cc(C2CCc3ccc([C@H](C4CC4)[C@H](C)C(=O)O)cc3O2)ccc1-c1cc(OC)ncc1F (some centres unmarked) [Example 44]
3.6	COc1cc(-c2ccc(C3CCc4ccc([C@H](C5CC5)[C@H](C)C(=O)O)cc4O3)cc2CN2CCCC(OC)C2)c(F)cn1 (some centres unmarked) [Example 48]
1.3	COc1cc(-c2ccc(C3CCc4ccc([C@H](C5CC5)[C@H](C)C(=O)O)cc4O3)cc2CN2CCC[C@H]2C)c(F)cn1 (some centres unmarked) [Example 50]
1	COc1cc(-c2ccc(C3CCc4ccc([C@H](C5CC5)[C@H](C)C(=O)O)cc4O3)cc2CN2CCOC[C@@H]2C)c(F)cn1 (some centres unmarked) [Example 51]
7	COc1cc(-c2ccc(C3CCc4ccc([C@H](C5CC5)[C@H](C)C(=O)O)cc4O3)cc2CN2CCC2C)c(F)cn1 (some centres unmarked) [Example 56]
1.1	COC[C@@H]1CC[C@@H](COC)N1Cc1cc(C2CCc3ccc([C@H](C4CC4)[C@H](C)C(=O)O)cc3O2)ccc1-c1cc(OC)ncc1F (some centres unmarked) [Example 58]
2	COC[C@H]1CC[C@H](COC)N1Cc1cc(C2CCc3ccc([C@H](C4CC4)[C@H](C)C(=O)O)cc3O2)ccc1-c1cc(OC)ncc1F (some centres unmarked) [Example 65]
1.2	COc1cc(-c2ccc(C3CCc4ccc([C@H](C5CC5)[C@H](C)C(=O)O)cc4O3)cc2CN2CCC2C(F)(F)F)c(F)cn1 (some centres unmarked) [Example 72]
0.8	COC[C@@H]1CCCN1Cc1cc([C@@H]2CCc3ccc([C@H](C4CC4)[C@H](C)C(=O)O)cc3O2)ccc1-c1cc(OC)ncc1F [Example 134, (2S, 3R)-3-cyclopropyl-3-((S)-2-(4-(5-fluoro-2-methoxypyridin-4-yl)-3-(((S)-2-(methoxymethyl)pyrrolidin-1-yl)methyl)phenyl)chroman-7-yl)-2-methylpropanoic acid]
5	COC[C@@H]1CCCN1Cc1cc([C@H]2CCc3ccc([C@H](C4CC4)[C@H](C)C(=O)O)cc3O2)ccc1-c1cc(OC)ncc1F [Example 135]
4.6	COc1cc(-c2ccc([C@H]3CCc4ccc([C@H](C5CC5)[C@H](C)C(=O)O)cc4O3)cc2CN2CCC[C@@H]2C)c(F)cn1 [Example 136]
